{"source": "patent US20250066419A1", "about": "(priority 2021, published 2025)", "data": [{"substance": "FITC-linker-YGRRARRRRRRIYSIKDTKLGN-biotin [CTP-SEB2]", "values": [{"measurement": "permeability effect (degree of fluorescent labeling of cells)", "setting": "BMDCs", "value": "permeability effect is greater"}, {"measurement": "peptide permeability in DCs (peptide-FITC in CD11c+ CD80+ population)", "setting": "dendritic cells", "value": "permeated a large amount of peptide"}, {"measurement": "penetration of peptide into MoDCs", "setting": "MoDCs", "value": "penetrated MoDCs much more"}]}]}
